We go through five compounds from patent US20120258156A1, “SHAPED COMPOSITIONS FOR UNIFORM DELIVERY OF A FUNCTIONAL AGENT” (priority 2011, published 2012).

Molecules are shown by their SMILES.

For this series the following is noted: salt at 5% by weight in about 10 g tablets with 75% to 95% by weight calcium hypochlorite; FIGS. 6-8. The source says:
The amount of calcium hypochlorite within each example ranged from 75% by weight to 95% by weight, while the various salts were included at 5% by weight, if at all.
As to `O=C([O-])[O-].[Ca+2]` [calcium carbonate], the “effect of additive on dissolution of the calcium hypochlorite” value (shortened to “effect … of the calcium hypochlorite”) is “increase the rate of dissolution”. For the compound `O=S(=O)([O-])[O-].[Ca+2]` [calcium sulfate], the “effect … of the calcium hypochlorite” value is “slow dissolution”. Regarding `[Mg+2].[OH-].[OH-]` [magnesium hydroxide], the “effect … of the calcium hypochlorite” value was “slow dissolution”. For `O=S(=O)([O-])[O-].[Mg+2]` [magnesium sulfate], the “effect … of the calcium hypochlorite” value was “slow dissolution”. For the compound `O=C([O-])[O-].[Na+].[Na+]` [sodium carbonate], the “effect … of the calcium hypochlorite” value is given as “slow dissolution”.
